According to patent US20050164370A1 (priority 2003, published 2005):

How the values were obtained:
[1] = molecular target: T1, cytokinin receptor AHK3 (Arabidopsis thaliana, UniProt Q9C5U1); test: Agonist-activity to cytokinin receptor, optical density of TM182-AHK3 liquid culture; type: cell-based, yeast; parameters: expressed in transfected cells; host or cells: yeast strain TM182 carrying plasmid p415CYC-AHK3 (pHM-1 backbone, CYC1 promoter); settings: TM182-AHK3, examinee substance 100 μM, DOLU+Glu, 30° C. for 24 hours
T1 sequence (Q9C5U1 1-1036): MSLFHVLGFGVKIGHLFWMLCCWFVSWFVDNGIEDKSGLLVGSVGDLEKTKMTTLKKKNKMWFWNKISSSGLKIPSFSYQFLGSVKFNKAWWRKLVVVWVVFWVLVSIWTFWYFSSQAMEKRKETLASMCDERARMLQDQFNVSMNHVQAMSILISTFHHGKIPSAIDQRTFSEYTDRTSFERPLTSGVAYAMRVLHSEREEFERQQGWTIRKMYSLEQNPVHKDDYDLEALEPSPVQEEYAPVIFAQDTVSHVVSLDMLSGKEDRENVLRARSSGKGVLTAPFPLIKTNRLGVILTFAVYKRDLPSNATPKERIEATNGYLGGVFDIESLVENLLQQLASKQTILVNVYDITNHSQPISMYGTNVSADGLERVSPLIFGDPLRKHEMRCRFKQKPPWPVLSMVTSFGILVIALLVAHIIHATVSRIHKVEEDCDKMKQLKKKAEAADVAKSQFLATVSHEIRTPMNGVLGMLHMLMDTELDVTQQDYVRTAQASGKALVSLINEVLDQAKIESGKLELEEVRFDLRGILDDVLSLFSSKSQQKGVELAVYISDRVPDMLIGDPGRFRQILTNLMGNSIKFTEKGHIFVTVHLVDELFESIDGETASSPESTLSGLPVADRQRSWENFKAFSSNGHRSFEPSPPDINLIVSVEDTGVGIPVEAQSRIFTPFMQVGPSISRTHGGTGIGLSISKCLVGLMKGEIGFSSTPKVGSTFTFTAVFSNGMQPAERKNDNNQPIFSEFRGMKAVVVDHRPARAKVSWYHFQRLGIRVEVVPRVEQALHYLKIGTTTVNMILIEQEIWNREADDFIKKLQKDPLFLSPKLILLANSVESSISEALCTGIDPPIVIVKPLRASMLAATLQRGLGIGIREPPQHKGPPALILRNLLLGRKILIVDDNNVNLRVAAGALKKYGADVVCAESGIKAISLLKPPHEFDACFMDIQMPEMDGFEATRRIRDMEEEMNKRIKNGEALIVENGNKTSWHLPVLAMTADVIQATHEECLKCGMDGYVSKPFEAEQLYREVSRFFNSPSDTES
Experimental: The transformed cells TM182-AHK2, TM182-AHK2Δ and TM182-AHK3 produced in the reference example 1 were inoculated in 200 ml of DOLU+Gal culture media and pre-cultured at 30° C. for 36 hours. The pre-cultured solutions were diluted with DOLU+Glu media as to become 0.100 as the optical density (OD600) and further the resultants were diluted with DOLU+Glu media at a dilution rate of 1/200 to obtain diluted pre-cultured solutions.
An assay plate was prepared by filling respective wells of a 96-well plate with 20 μl of solutions which were prepared by diluting DMSO solution (10 mM) of each examinee substance with DOLU+Glu medium at a dilution rate of 1/100, said solutions containing each examinee substance to be […]. […]
The diluted pre-cultured solutions were added in 200 μl each into the respective wells of both assay plates and cultured at 30° C. for 24 hours and then the optical density (OD620) of each well was measured by a plate reader. The agonist-activity of the examinee substances to the cytokinin receptor was detected by comparing the optical density measured in the testing sections to which the examinee substances were added with the optical density measured in the blank sections.

[2] = system: transformed cells TM182-CRE1-ADHIPT5; type: cell-based, yeast; settings: Table 3, TM182-CRE1-ADH-IPT5, 1 μL of 200 ppm DMSO solution per 100 μL, DOHLU+Glu, 30° C. for 24 hours
Experimental: Each of the transformed cells TM182-CYC1-CYC1IPT4, TM182-CYC1-ADHIPT4, TM182-CYC1-CYC1IPT5, TM182-CYC1-ADHIPT5, TM182-CRE1-CYC1IPT4, and TM182-CRE1-ADHIPT5 obtained in Example 16 was inoculated in 200 mL of DOHLU+Gal culture medium, and was pre-cultured at 30° C. for 36 hours. The thus obtained culture solutions were diluted with DOHLU+Glu culture medium so that OD600 became 0.200, and then the diluted ones were further diluted with DOHLU+Glu culture medium at a dilution rate of 1/200 to obtain diluted pre-cultured solutions.
A 96-well assay plate was prepared by filling each well with 1 μL of a DMSO solution of an examinee substance (Abscisic acid or 6-Benzyl aminopurine). In this regard, it is to be noted that the DMSO solution of a examinee substance was prepared so that the concentration thereof became 200 ppm. Simultaneously, an assay plate was prepared by filling each well with 1 μL of DMSO as a blank section.
Each of the diluted pre-cultured solutions was added in a volume of 100 μL per each well of both of the assay plates, and was cultured at 30° C. for 24 hours. After incubation, the turbidity of each well was measured using a plate reader.

SMILES | optical density (OD620) of the culture solution [1] | absorbance (OD600) of the culture solution [2]
CC1=CC(=O)CC(C)(C)[C@@]1(O)/C=C/C(C)=C\C(=O)O [Compound A, Abscisic acid] | 0.54 | 0.131
c1ccc(CNc2ncnc3nc[nH]c23)cc1 [Compound B, 6-Benzyl aminopurine] | 0.88 | 0.293
